{
  "source": "PubChem BioAssay (NCI)",
  "test_in_all_cases": "inhibition of tumour cell growth, NCI panel, 384-well format",
  "key": {"[1]": {"test_system": "A498 renal"}, "[2]": {"test_system": "A549 NSCLC"}, "[3]": {"test_system": "ACHN renal"}, "[4]": {"test_system": "BT-549 breast"}, "[5]": {"test_system": "CAKI-1 renal"}, "[6]": {"test_system": "CCRF-CEM leukemia"}, "[7]": {"test_system": "COLO 205 colon"}, "[8]": {"test_system": "DU-145 prostate"}, "[9]": {"test_system": "HCC-2998 colon"}, "[10]": {"test_system": "HCT-116 colon"}, "[11]": {"test_system": "HCT-15 colon"}, "[12]": {"test_system": "HL-60(TB) leukemia"}, "[13]": {"test_system": "HOP-62 NSCLC"}, "[14]": {"test_system": "HOP-92 NSCLC"}, "[15]": {"test_system": "IGROV1 ovarian"}, "[16]": {"test_system": "KM12 colon"}, "[17]": {"test_system": "LOX IMVI melanoma"}, "[18]": {"test_system": "M14 melanoma"}, "[19]": {"test_system": "MCF7 breast"}, "[20]": {"test_system": "MDA-MB-231 breast"}, "[21]": {"test_system": "MDA-MB-468 breast"}, "[22]": {"test_system": "MOLT-4 leukemia"}, "[23]": {"test_system": "NCI-H226 lung"}, "[24]": {"test_system": "NCI-H23 lung"}, "[25]": {"test_system": "NCI-H460 NSCLC"}, "[26]": {"test_system": "NCI-H522 lung"}, "[27]": {"test_system": "NCI/ADR-RES ovarian"}, "[28]": {"test_system": "OVCAR-3 ovarian"}, "[29]": {"test_system": "OVCAR-4 ovarian"}, "[30]": {"test_system": "OVCAR-5 ovarian"}, "[31]": {"test_system": "OVCAR-8 ovarian"}, "[32]": {"test_system": "PC-3 prostate"}, "[33]": {"test_system": "RPMI-8226 leukemia"}, "[34]": {"test_system": "RXF 393 renal"}, "[35]": {"test_system": "SF-268 CNS"}, "[36]": {"test_system": "SF-295 CNS"}, "[37]": {"test_system": "SF-539 CNS"}, "[38]": {"test_system": "SK-MEL-28 melanoma"}, "[39]": {"test_system": "SK-MEL-5 melanoma"}, "[40]": {"test_system": "SK-OV-3 ovarian"}, "[41]": {"test_system": "SN12C renal"}, "[42]": {"test_system": "SNB-19 CNS"}, "[43]": {"test_system": "SR leukemia"}, "[44]": {"test_system": "TK-10 renal"}, "[45]": {"test_system": "U251 glioblastoma"}, "[46]": {"test_system": "UACC-257 melanoma"}, "[47]": {"test_system": "UACC-62 melanoma"}},
  "note": "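Abbreviation: GI50, concentration required for 50% inhibition of growth. TGI is the concentration that stops growth completely.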",
  "data": [
    {"smiles": "Nc1nc(OCc2cc(Br)cs2)c2[nH]cnc2n1", "values": [
      {"measurement": "GI50", "setting": "[1]", "result": 30.3, "unit": "µM"},
      {"measurement": "TGI", "setting": "[1]", "result": "> 100", "unit": "µM"},
      {"measurement": "GI50", "setting": "[2]", "result": 42.6, "unit": "µM"},
      {"measurement": "TGI", "setting": "[2]", "result": "> 100", "unit": "µM"},
      {"measurement": "GI50", "setting": "[3]", "result": 30.2, "unit": "µM"},
      {"measurement": "TGI", "setting": "[3]", "result": "> 100", "unit": "µM"},
      {"measurement": "GI50", "setting": "[4]", "result": 21.8, "unit": "µM"},
      {"measurement": "TGI", "setting": "[4]", "result": 53.5, "unit": "µM"},
      {"measurement": "GI50", "setting": "[5]", "result": 25.1, "unit": "µM"},
      {"measurement": "TGI", "setting": "[5]", "result": 86.6, "unit": "µM"},
      {"measurement": "GI50", "setting": "[6]", "result": 19.4, "unit": "µM"},
      {"measurement": "TGI", "setting": "[6]", "result": 40.3, "unit": "µM"},
      {"measurement": "GI50", "setting": "[7]", "result": 72.9, "unit": "µM"},
      {"measurement": "TGI", "setting": "[7]", "result": "> 100", "unit": "µM"},
      {"measurement": "GI50", "setting": "[8]", "result": 44.7, "unit": "µM"},
      {"measurement": "TGI", "setting": "[8]", "result": "> 100", "unit": "µM"},
      {"measurement": "GI50", "setting": "[9]", "result": 66.7, "unit": "µM"},
      {"measurement": "TGI", "setting": "[9]", "result": "> 100", "unit": "µM"},
      {"measurement": "GI50", "setting": "[10]", "result": 38.4, "unit": "µM"},
      {"measurement": "TGI", "setting": "[10]", "result": "> 100", "unit": "µM"},
      {"measurement": "GI50", "setting": "[11]", "result": 33.9, "unit": "µM"},
      {"measurement": "TGI", "setting": "[11]", "result": "> 100", "unit": "µM"},
      {"measurement": "GI50", "setting": "[12]", "result": 18, "unit": "µM"},
      {"measurement": "TGI", "setting": "[12]", "result": 35.8, "unit": "µM"},
      {"measurement": "GI50", "setting": "[13]", "result": 36.7, "unit": "µM"},
      {"measurement": "TGI", "setting": "[13]", "result": 99.4, "unit": "µM"},
      {"measurement": "GI50", "setting": "[14]", "result": 40.8, "unit": "µM"},
      {"measurement": "TGI", "setting": "[14]", "result": "> 100", "unit": "µM"},
      {"measurement": "GI50", "setting": "[15]", "result": 30.7, "unit": "µM"},
      {"measurement": "TGI", "setting": "[15]", "result": "> 100", "unit": "µM"},
      {"measurement": "GI50", "setting": "[16]", "result": 87.2, "unit": "µM"},
      {"measurement": "TGI", "setting": "[16]", "result": "> 100", "unit": "µM"},
      {"measurement": "GI50", "setting": "[17]", "result": 22.5, "unit": "µM"},
      {"measurement": "TGI", "setting": "[17]", "result": 47.8, "unit": "µM"},
      {"measurement": "GI50", "setting": "[18]", "result": 47.9, "unit": "µM"},
      {"measurement": "TGI", "setting": "[18]", "result": "> 100", "unit": "µM"},
      {"measurement": "GI50", "setting": "[19]", "result": 32.6, "unit": "µM"},
      {"measurement": "TGI", "setting": "[19]", "result": "> 100", "unit": "µM"},
      {"measurement": "GI50", "setting": "[20]", "result": 40.7, "unit": "µM"},
      {"measurement": "TGI", "setting": "[20]", "result": "> 100", "unit": "µM"},
      {"measurement": "GI50", "setting": "[21]", "result": 16.9, "unit": "µM"},
      {"measurement": "TGI", "setting": "[21]", "result": 47.5, "unit": "µM"},
      {"measurement": "GI50", "setting": "[22]", "result": 17.3, "unit": "µM"},
      {"measurement": "TGI", "setting": "[22]", "result": 37.5, "unit": "µM"},
      {"measurement": "GI50", "setting": "[23]", "result": 45.9, "unit": "µM"},
      {"measurement": "TGI", "setting": "[23]", "result": 96.9, "unit": "µM"},
      {"measurement": "GI50", "setting": "[24]", "result": 42.4, "unit": "µM"},
      {"measurement": "TGI", "setting": "[24]", "result": "> 100", "unit": "µM"},
      {"measurement": "GI50", "setting": "[25]", "result": 40.3, "unit": "µM"},
      {"measurement": "TGI", "setting": "[25]", "result": "> 100", "unit": "µM"},
      {"measurement": "GI50", "setting": "[26]", "result": 27.6, "unit": "µM"},
      {"measurement": "TGI", "setting": "[26]", "result": "> 77", "unit": "µM"},
      {"measurement": "GI50", "setting": "[27]", "result": 53.7, "unit": "µM"},
      {"measurement": "TGI", "setting": "[27]", "result": "> 100", "unit": "µM"},
      {"measurement": "GI50", "setting": "[28]", "result": 61.8, "unit": "µM"},
      {"measurement": "TGI", "setting": "[28]", "result": "> 100", "unit": "µM"},
      {"measurement": "GI50", "setting": "[29]", "result": "> 78.7", "unit": "µM"},
      {"measurement": "TGI", "setting": "[29]", "result": "> 100", "unit": "µM"},
      {"measurement": "GI50", "setting": "[30]", "result": "> 95.3", "unit": "µM"},
      {"measurement": "TGI", "setting": "[30]", "result": "> 100", "unit": "µM"},
      {"measurement": "GI50", "setting": "[31]", "result": 45.9, "unit": "µM"},
      {"measurement": "TGI", "setting": "[31]", "result": "> 100", "unit": "µM"},
      {"measurement": "GI50", "setting": "[32]", "result": 74, "unit": "µM"},
      {"measurement": "TGI", "setting": "[32]", "result": "> 100", "unit": "µM"},
      {"measurement": "GI50", "setting": "[33]", "result": 20.4, "unit": "µM"},
      {"measurement": "TGI", "setting": "[33]", "result": 40.4, "unit": "µM"},
      {"measurement": "GI50", "setting": "[34]", "result": 24.5, "unit": "µM"},
      {"measurement": "TGI", "setting": "[34]", "result": 62.7, "unit": "µM"},
      {"measurement": "GI50", "setting": "[35]", "result": 32.1, "unit": "µM"},
      {"measurement": "TGI", "setting": "[35]", "result": "> 84.9", "unit": "µM"},
      {"measurement": "GI50", "setting": "[36]", "result": 48.7, "unit": "µM"},
      {"measurement": "TGI", "setting": "[36]", "result": "> 100", "unit": "µM"},
      {"measurement": "GI50", "setting": "[37]", "result": 44.2, "unit": "µM"},
      {"measurement": "TGI", "setting": "[37]", "result": "> 100", "unit": "µM"},
      {"measurement": "GI50", "setting": "[38]", "result": "> 100", "unit": "µM"},
      {"measurement": "TGI", "setting": "[38]", "result": "> 100", "unit": "µM"},
      {"measurement": "GI50", "setting": "[39]", "result": 40.9, "unit": "µM"},
      {"measurement": "TGI", "setting": "[39]", "result": "> 100", "unit": "µM"},
      {"measurement": "GI50", "setting": "[40]", "result": 29.1, "unit": "µM"},
      {"measurement": "TGI", "setting": "[40]", "result": 74.7, "unit": "µM"},
      {"measurement": "GI50", "setting": "[41]", "result": 29, "unit": "µM"},
      {"measurement": "TGI", "setting": "[41]", "result": "> 100", "unit": "µM"},
      {"measurement": "GI50", "setting": "[42]", "result": 70, "unit": "µM"},
      {"measurement": "TGI", "setting": "[42]", "result": "> 100", "unit": "µM"},
      {"measurement": "GI50", "setting": "[43]", "result": 8.96, "unit": "µM"},
      {"measurement": "TGI", "setting": "[43]", "result": 25.2, "unit": "µM"},
      {"measurement": "GI50", "setting": "[44]", "result": 30.5, "unit": "µM"},
      {"measurement": "TGI", "setting": "[44]", "result": "> 100", "unit": "µM"},
      {"measurement": "GI50", "setting": "[45]", "result": 31.3, "unit": "µM"},
      {"measurement": "TGI", "setting": "[45]", "result": "> 95.1", "unit": "µM"},
      {"measurement": "GI50", "setting": "[46]", "result": 51.7, "unit": "µM"},
      {"measurement": "TGI", "setting": "[46]", "result": "> 100", "unit": "µM"},
      {"measurement": "GI50", "setting": "[47]", "result": 31.2, "unit": "µM"},
      {"measurement": "TGI", "setting": "[47]", "result": "> 100", "unit": "µM"}
    ]}
  ]
}
